Like-named read-outs stand apart in the source and are kept apart here.
Experiments:
Type in all cases: in vivo
[1] = test system: mice; assay: Neuropharmacological Assay (SmartCube); details: for minimal effective dose: Mus musculus, read-out: POTENCY (minimal effective dose, MED); for AD: ADHD (SmartCube probability) / AG: analgesic (SmartCube probability) / AX: anxiolytic (SmartCube probability) / CE: cognitive enhancer (SmartCube probability) / DP: anti-depressant (SmartCube probability) / MS: mood stabilizer (SmartCube probability) / PS: anti-psychotic (SmartCube probability) / SD: sedative hypnotic (SmartCube probability) / UN: uncharacterized CNS activity (SmartCube probability): mice, i.p. 15 min before test, most efficacious dose(s) of 3 doses
In short: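 Compounds in NMP/PEG/propylene glycol given i.p. 15 min before automated video-based behavioral testing, at 3 doses; behavioral signature compared with a reference-compound database to give probability per drug class, reported at most efficacious dose. MED = dose (mpk) giving ≥50% total activity; doses typically 0.3–30 mpk.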

[2] = test system: Male C57Bl/6J mice; assay: Phencyclidine (PCP)-induced hyperlocomotion; details: PCP 2.5 mg/kg s.c.; distance traveled
Description: Phencyclidine (PCP)-Induced Hyperlocomotion
The PCP-induced hyperlocomotion assay is an indicator of antipsychotic-like activity. Male C57Bl/6J mice (20-26 g) were administered vehicle or test compound and placed in holding cages for 30 minutes, after which they were placed in the locomotor activity chambers for 30 minutes of baseline capture. The test chambers are Plexiglas rectangular chambers (24×45 cm) that fit inside two steel frames (9.5×18 inches) and are fitted with two-dimensional 4×8 beam grids to monitor horizontal and vertical locomotor activity. Total distance traveled was measured from horizontal beam breaks as the animal traveled. Following the 30 minute baseline period, all […] were injected with saline or PCP (2.5 mg/kg, s.c.) and returned to the locomotor activity chambers for a 60 minute test session. A compound with antipsychotic-like activity will decrease the distance traveled following administration of PCP. Data were analyzed by analysis of variance (ANOVA) followed by post-hoc comparisons with Fisher Tests when appropriate.

[3] = test system: Male C57Bl/6J mice; assay: Amphetamine-induced hyperlocomotion assay; set-up: key: +++ = <1.0 mg/kg; ++ = 1-10 mg/kg; + = 10-30 mg/kg; NE = no effect; details: AMPH 4 mg/kg ip; stimulant-induced hyperactivity
Description: Amphetamine-Induced Hyperlocomotion Assay
Amphetamine (AMPH) is frequently used to induce or mimic a manic-like state. The antimanic-like effects of test compounds were evaluated in male C57Bl/6J mice. Mice were acclimatized to the experimental room for at least 1 hour prior to testing. The mice (n=10 per group) were administered vehicle or test compound and placed in the open field (OF) chambers for 30 minutes of baseline activity measurement. The mice were then injected with either water or AMPH (4 mg/kg, ip) and placed back in the OF chambers for a 60-minute testing session during which, the effects of test compounds on stimulant-induced hyperactivity behaviors (total distance traveled, rearing and stereotypy) were measured. Data were analyzed by analysis of variance (ANOVA) followed by post-hoc comparisons with Fisher Tests when appropriate.

[4] = test system: Male Balb/cJ mice; assay: Forced Swim test (FST); details: 30 minute pretreatment; time immobile over 6 minute trial
Description: Forced Swim Test Procedures
The Forced Swim test (FST) is an indicator of the antidepressant-like activity of a test compound. Male Balb/cJ mice (26-31 g) were given a 30 minute pretreatment with vehicle (sterile water), sertraline control or test compound. The FST consists of one 6 minute session of forced swimming in individual opaque cylinders containing water at a temperature of 23±2° C. The mouse will swim before “giving up” and becoming immobile, the time spent immobile was recorded over the 6 minute trial. A compound with antidepressant-like activity will decrease the time the mouse is immobile over the 6 minute trial. Data were analyzed by analysis of variance (ANOVA) followed by post-hoc comparisons with Fisher Tests when appropriate.

[5] = test system: Adult male AJ mice; assay: Tail suspension test (TST); set-up: key: +++ = <1.0 mg/kg; ++ = 1-10 mg/kg; + = 10-30 mg/kg; NE = no effect; details: oral gavage 30 min before test; time immobile
Excerpt: The tail suspension test (TST) is a rodent screening test for potential (human) antidepressant drugs. It is based on the assumption that an animal will actively try to escape an aversive (stressful) stimulus. If escape is impossible, the animal will eventually stop trying (“give up”). In the TST, a mouse is suspended by the tail so that its body dangles in the air, head downward. Mice initially struggle to face upward and climb to a solid surface. When the animal stops struggling and hangs immobile it is considered to have “given up”. Shorter periods of immobility are characteristic of antidepressant-like activity. Accordingly, longer periods of immobility are considered indicative of a depressive-like state. It has been shown that treatment with an antidepressant drug will decrease the time the animal spends immobile. See generally L. Stem et al., Psychopharmacology (Berl). 1985; 85(3):367-70; B. Thierry et al., Psychopharmacology 1986; 90:284-85.
Procedure. Adult male AJ mice from Jackson Laboratories received vehicle (sterile water) or test compound orally by gavage, or the positive control desipramine (20 mg/kg, i.p.), in 10 mL/kg injection volumes, 30 min before being subjected to the Tail Suspension Test. In this test, mice are placed in the Tail Suspension chambers (white polyvinylchloride cubicles measuring 33×33×31.75 cm Med Associates, Inc. St. Albans, Vt.) by a piece of transparent (Scotch®) tape attached to the tail, from about the mid-tail, with approximately 2 cm of tape past the end of the tail for 10 min during which the time spent immobile is measured. A reduction in total time immobile relative to the vehicle condition indicates an antidepressant drug-like response.

[6] = MED = dose having 50% or more total activity in SmartCube

SMILES: CNC[C@@H]1OCCc2ccc3c(c21)OCO3 [Example 2, (R)-1-(6,9-dihydro-7H-[1,3]dioxolo[4,5-h]isochromen-9-yl)-N-methylmethanamine]
- minimal effective dose [1]: < 3 mg/kg
- AD: ADHD (SmartCube probability) [1]: + (LOQ≤ + <5%)
- AG: analgesic (SmartCube probability) [1]: ++ (5%≤ ++ <25%)
- AX: anxiolytic (SmartCube probability) [1]: ++ (5%≤ ++ <25%)
- CE: cognitive enhancer (SmartCube probability) [1]: ++ (5%≤ ++ <25%)
- DP: anti-depressant (SmartCube probability) [1]: +++ (25%≤ +++ <50%)
- MS: mood stabilizer (SmartCube probability) [1]: ++ (5%≤ ++ <25%)
- PS: anti-psychotic (SmartCube probability) [1]: ++ (5%≤ ++ <25%)
- SD: sedative hypnotic (SmartCube probability) [1]: + (LOQ≤ + <5%)
- UN: uncharacterized CNS activity (SmartCube probability) [1]: +++ (25%≤ +++ <50%)
- PCP: efficacious dose [2]: +++ (+++ = <1.0 mg/kg)
- AMPH: efficacious dose [3]: NE
- FST: efficacious dose [4]: +++ (+++ = <1.0 mg/kg)

SMILES: CNC[C@@H]1OCCc2c(F)cccc21 [Example 14, (R)-1-(5-fluoroisochroman-1-yl)-N-methylmethanamine]
- minimal effective dose [1, 6]: < 3 mg/kg
- AD: ADHD (SmartCube probability) [1]: + (LOQ≤ + <5%)
- AG: analgesic (SmartCube probability) [1]: ++ (5%≤ ++ <25%)
- AX: anxiolytic (SmartCube probability) [1]: ++ (5%≤ ++ <25%)
- CE: cognitive enhancer (SmartCube probability) [1]: ++ (5%≤ ++ <25%)
- DP: anti-depressant (SmartCube probability) [1]: ++++ (50%≤ ++++)
- MS: mood stabilizer (SmartCube probability) [1]: ++ (5%≤ ++ <25%)
- PS: anti-psychotic (SmartCube probability) [1]: ++ (5%≤ ++ <25%)
- SD: sedative hypnotic (SmartCube probability) [1]: ++ (5%≤ ++ <25%)
- UN: uncharacterized CNS activity (SmartCube probability) [1]: +++ (25%≤ +++ <50%)
- TST: efficacious dose [5]: + (+ = 10-30 mg/kg)
- AMPH: efficacious dose [3]: + (+ = 10-30 mg/kg)

SMILES: CNC[C@@H]1OCCc2cc(F)ccc21 [Example 17, (R)-1-(6-fluoroisochroman-1-yl)-N-methylmethanamine]
- minimal effective dose [1, 6]: < 3 mg/kg
- AD: ADHD (SmartCube probability) [1]: + (LOQ≤ + <5%)
- AG: analgesic (SmartCube probability) [1]: ++ (5%≤ ++ <25%)
- AX: anxiolytic (SmartCube probability) [1]: ++ (5%≤ ++ <25%)
- CE: cognitive enhancer (SmartCube probability) [1]: +++ (25%≤ +++ <50%)
- DP: anti-depressant (SmartCube probability) [1]: ++ (5%≤ ++ <25%)
- MS: mood stabilizer (SmartCube probability) [1]: + (LOQ≤ + <5%)
- PS: anti-psychotic (SmartCube probability) [1]: +++ (25%≤ +++ <50%)
- SD: sedative hypnotic (SmartCube probability) [1]: + (LOQ≤ + <5%)
- UN: uncharacterized CNS activity (SmartCube probability) [1]: ++ (5%≤ ++ <25%)
- TST: efficacious dose [5]: NE
- AMPH: efficacious dose [3]: ++ (++ = 1-10 mg/kg)

SMILES: CNC[C@@H]1OCCc2cccc(F)c21 [Example 26, (R)-1-(8-fluoroisochroman-1-yl)-N-methylmethanamine]
- minimal effective dose [1, 6]: < 3 mg/kg
- AD: ADHD (SmartCube probability) [1]: + (LOQ≤ + <5%)
- AG: analgesic (SmartCube probability) [1]: ++ (5%≤ ++ <25%)
- AX: anxiolytic (SmartCube probability) [1]: ++ (5%≤ ++ <25%)
- CE: cognitive enhancer (SmartCube probability) [1]: ++ (5%≤ ++ <25%)
- DP: anti-depressant (SmartCube probability) [1]: ++++ (50%≤ ++++)
- MS: mood stabilizer (SmartCube probability) [1]: + (LOQ≤ + <5%)
- PS: anti-psychotic (SmartCube probability) [1]: ++ (5%≤ ++ <25%)
- SD: sedative hypnotic (SmartCube probability) [1]: ++ (5%≤ ++ <25%)
- UN: uncharacterized CNS activity (SmartCube probability) [1]: +++ (25%≤ +++ <50%)
- TST: efficacious dose [5]: NE
- PCP: efficacious dose [2]: +++ (+++ = <1.0 mg/kg)
- AMPH: efficacious dose [3]: + (+ = 10-30 mg/kg)
- FST: efficacious dose [4]: +++ (+++ = <1.0 mg/kg)

SMILES: CNC[C@@H]1OCCc2ccc3c(c21)CCO3 [Example 107, (R)-N-methyl-1-(3,4,8,9-tetrahydro-1H-furo[2,3-h]isochromen-1-yl)methanamine]
- minimal effective dose [1, 6]: 3 to 10 mg/kg
- AD: ADHD (SmartCube probability) [1]: + (LOQ≤ + <5%)
- AG: analgesic (SmartCube probability) [1]: + (LOQ≤ + <5%)
- AX: anxiolytic (SmartCube probability) [1]: ++ (5%≤ ++ <25%)
- CE: cognitive enhancer (SmartCube probability) [1]: + (LOQ≤ + <5%)
- DP: anti-depressant (SmartCube probability) [1]: ++ (5%≤ ++ <25%)
- MS: mood stabilizer (SmartCube probability) [1]: + (LOQ≤ + <5%)
- PS: anti-psychotic (SmartCube probability) [1]: ++ (5%≤ ++ <25%)
- SD: sedative hypnotic (SmartCube probability) [1]: ++ (5%≤ ++ <25%)
- UN: uncharacterized CNS activity (SmartCube probability) [1]: +++ (25%≤ +++ <50%)

SMILES: CNC[C@H]1OCCc2ccc3c(c21)CCO3 [Example 108, (S)-N-methyl-1-(3,4,8,9-tetrahydro-1H-furo[2,3-h]isochromen-1-yl)methanamine]
- minimal effective dose [1, 6]: 3 to 10 mg/kg
- AD: ADHD (SmartCube probability) [1]: + (LOQ≤ + <5%)
- AG: analgesic (SmartCube probability) [1]: + (LOQ≤ + <5%)
- AX: anxiolytic (SmartCube probability) [1]: + (LOQ≤ + <5%)
- CE: cognitive enhancer (SmartCube probability) [1]: + (LOQ≤ + <5%)
- DP: anti-depressant (SmartCube probability) [1]: ++ (5%≤ ++ <25%)
- MS: mood stabilizer (SmartCube probability) [1]: + (LOQ≤ + <5%)
- PS: anti-psychotic (SmartCube probability) [1]: ++ (5%≤ ++ <25%)
- SD: sedative hypnotic (SmartCube probability) [1]: + (LOQ≤ + <5%)
- UN: uncharacterized CNS activity (SmartCube probability) [1]: ++++ (50%≤ ++++)

SMILES: CNC[C@@H]1OCCc2ccc3c(c21)COC3 [Example 109]
- POTENCY (minimal effective dose, MED) [1, 6]: B (>3 to 10 mpk)
- AD: ADHD (SmartCube probability) [1]: + (LOQ≤ + <5%)
- AG: analgesic (SmartCube probability) [1]: + (LOQ≤ + <5%)
- AX: anxiolytic (SmartCube probability) [1]: ++ (5%≤ ++ <25%)
- CE: cognitive enhancer (SmartCube probability) [1]: + (LOQ≤ + <5%)
- DP: anti-depressant (SmartCube probability) [1]: ++ (5%≤ ++ <25%)
- MS: mood stabilizer (SmartCube probability) [1]: + (LOQ≤ + <5%)
- PS: anti-psychotic (SmartCube probability) [1]: ++++ (50%≤ ++++)
- SD: sedative hypnotic (SmartCube probability) [1]: ++ (5%≤ ++ <25%)
- UN: uncharacterized CNS activity (SmartCube probability) [1]: ++ (5%≤ ++ <25%)

Reference: patent US10196403B2, “Compounds and compositions and uses thereof” (Sunovion Pharmaceuticals Inc., priority 2016, dated 2019)
